# In PubChem BioAssay AID2060888 (Molecular Pharmacology Branch, DTP, NCI, 2025):
# Tested on: 695427-040-R-J1-PDC complex spheroid viability
# Assay: Anticancer human tumor 695427-040-R-J1-PDC patient-derived colon adenocarcinoma cell line growth inhibition [RAS]
# Conditions: for IC50: curve of first compound; for viability, T/C: stronger effect = lower value
# Summary of the method: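 Multi-cell-type spheroids: tumor cells plus HUVEC endothelial cells and mesenchymal stem cells. RAS-pathway inhibitors were combined with targeted agents, each dosed in half-log steps down from clinical Cmax, or from 10 microM when Cmax was unknown.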
# [1] = second compound 0.0316 µM, first compound 0.000949 µM
# [2] = second compound 0.0316 µM, first compound 0.003 µM
# [3] = second compound 0.0316 µM, first compound 0.00949 µM
# [4] = second compound 0.0316 µM, first compound 0.03 µM
# [5] = second compound 0.0316 µM, first compound 0.0949 µM
# [6] = second compound 0.0316 µM, first compound 0.3 µM
# [7] = second compound 0.1 µM, first compound 0.000949 µM
# [8] = second compound 0.1 µM, first compound 0.003 µM
# [9] = second compound 0.1 µM, first compound 0.00949 µM
# [10] = second compound 0.1 µM, first compound 0.03 µM
# [11] = second compound 0.1 µM, first compound 0.0949 µM
# [12] = second compound 0.1 µM, first compound 0.3 µM
# [13] = second compound 0.316 µM, first compound 0.000949 µM
# [14] = second compound 0.316 µM, first compound 0.003 µM
# [15] = second compound 0.316 µM, first compound 0.00949 µM
# [16] = second compound 0.316 µM, first compound 0.03 µM
# [17] = second compound 0.316 µM, first compound 0.0949 µM
# [18] = second compound 0.316 µM, first compound 0.3 µM
# [19] = second compound 1 µM, first compound 0.000949 µM
# [20] = second compound 1 µM, first compound 0.003 µM
# [21] = second compound 1 µM, first compound 0.00949 µM
# [22] = second compound 1 µM, first compound 0.03 µM
# [23] = second compound 1 µM, first compound 0.0949 µM
# [24] = second compound 1 µM, first compound 0.3 µM
# [25] = second compound 3.16 µM, first compound 0.000949 µM
# [26] = second compound 3.16 µM, first compound 0.003 µM
# [27] = second compound 3.16 µM, first compound 0.00949 µM
# [28] = second compound 3.16 µM, first compound 0.03 µM
# [29] = second compound 3.16 µM, first compound 0.0949 µM
# [30] = second compound 3.16 µM, first compound 0.3 µM
# [31] = second compound 10 µM, first compound 0.000949 µM
# [32] = second compound 10 µM, first compound 0.003 µM
# [33] = second compound 10 µM, first compound 0.00949 µM
# [34] = second compound 10 µM, first compound 0.03 µM
# [35] = second compound 10 µM, first compound 0.0949 µM
# [36] = second compound 10 µM, first compound 0.3 µM
# 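Also: viability read after seven days of drug exposure.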
# 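For viability, T/C in this document: 100% = DMSO vehicle control viability.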
compound,measurement,setting,value
C=CC(=O)N1CCN(c2nc(OCC3CCCN3C)nc3c(F)c(-c4nc(N)cc(C)c4C(F)(F)F)c(Cl)cc23)C(C)C1 (stereo unspecified) + C#Cc1c(F)ccc2cc(O)cc(-c3ncc4c(N5CC6CCC(C5)N6)nc(OCC56CCCN5CC(F)C6)nc4c3F)c12,IC50,second compound 0.0316 µM,> 1000 nM
same,IC50,second compound 0.1 µM,> 1000 nM
same,IC50,second compound 0.316 µM,> 1000 nM
same,IC50,second compound 1 µM,> 1000 nM
same,IC50,second compound 3.16 µM,498 nM
same,IC50,second compound 10 µM,< 3.16 nM
same,"viability, T/C","second compound 0.0316 µM, first compound 0.00316 µM",88.4%
same,"viability, T/C","second compound 0.0316 µM, first compound 0.01 µM",104%
same,"viability, T/C","second compound 0.0316 µM, first compound 0.0316 µM",96.7%
same,"viability, T/C","second compound 0.0316 µM, first compound 0.1 µM",95%
same,"viability, T/C","second compound 0.0316 µM, first compound 0.316 µM",98.5%
same,"viability, T/C","second compound 0.0316 µM, first compound 1 µM",92.9%
same,"viability, T/C","second compound 0.1 µM, first compound 0.00316 µM",98.4%
same,"viability, T/C","second compound 0.1 µM, first compound 0.01 µM",89.5%
same,"viability, T/C","second compound 0.1 µM, first compound 0.0316 µM",98.5%
same,"viability, T/C","second compound 0.1 µM, first compound 0.1 µM",85.5%
same,"viability, T/C","second compound 0.1 µM, first compound 0.316 µM",94.7%
same,"viability, T/C","second compound 0.1 µM, first compound 1 µM",83.3%
same,"viability, T/C","second compound 0.316 µM, first compound 0.00316 µM",91.6%
same,"viability, T/C","second compound 0.316 µM, first compound 0.01 µM",88%
same,"viability, T/C","second compound 0.316 µM, first compound 0.0316 µM",95.5%
same,"viability, T/C","second compound 0.316 µM, first compound 0.1 µM",83.1%
same,"viability, T/C","second compound 0.316 µM, first compound 0.316 µM",89%
same,"viability, T/C","second compound 0.316 µM, first compound 1 µM",67%
same,"viability, T/C","second compound 1 µM, first compound 0.00316 µM",76.2%
same,"viability, T/C","second compound 1 µM, first compound 0.01 µM",78.4%
same,"viability, T/C","second compound 1 µM, first compound 0.0316 µM",67.2%
same,"viability, T/C","second compound 1 µM, first compound 0.1 µM",67.3%
same,"viability, T/C","second compound 1 µM, first compound 0.316 µM",60.4%
same,"viability, T/C","second compound 1 µM, first compound 1 µM",58.4%
same,"viability, T/C","second compound 3.16 µM, first compound 0.00316 µM",56.3%
same,"viability, T/C","second compound 3.16 µM, first compound 0.01 µM",53%
same,"viability, T/C","second compound 3.16 µM, first compound 0.0316 µM",62.9%
same,"viability, T/C","second compound 3.16 µM, first compound 0.1 µM",58.7%
same,"viability, T/C","second compound 3.16 µM, first compound 0.316 µM",52.6%
same,"viability, T/C","second compound 3.16 µM, first compound 1 µM",41.5%
same,"viability, T/C","second compound 10 µM, first compound 0.00316 µM",39.6%
same,"viability, T/C","second compound 10 µM, first compound 0.01 µM",39.8%
same,"viability, T/C","second compound 10 µM, first compound 0.0316 µM",37.8%
same,"viability, T/C","second compound 10 µM, first compound 0.1 µM",45.8%
same,"viability, T/C","second compound 10 µM, first compound 0.316 µM",38.6%
same,"viability, T/C","second compound 10 µM, first compound 1 µM",42.8%
CC1(C)CCC(Nc2ncc(C(F)(F)F)c(-c3c[nH]c4c(P(C)(C)=O)c(C#N)ccc34)n2)CN1 (stereo unspecified) + C#Cc1c(F)ccc2cc(O)cc(-c3ncc4c(N5CC6CCC(C5)N6)nc(OCC56CCCN5CC(F)C6)nc4c3F)c12,IC50,second compound 0.0316 µM,> 300 nM
same,IC50,second compound 0.1 µM,> 300 nM
same,IC50,second compound 0.316 µM,> 300 nM
same,IC50,second compound 1 µM,> 300 nM
same,IC50,second compound 3.16 µM,3.19 nM
same,IC50,second compound 10 µM,< 0.949 nM
same,"viability, T/C",[1],104%
same,"viability, T/C",[2],91.6%
same,"viability, T/C",[3],84.4%
same,"viability, T/C",[4],79%
same,"viability, T/C",[5],84.5%
same,"viability, T/C",[6],80.3%
same,"viability, T/C",[7],101%
same,"viability, T/C",[8],87.8%
same,"viability, T/C",[9],84.3%
same,"viability, T/C",[10],88.6%
same,"viability, T/C",[11],79%
same,"viability, T/C",[12],73.2%
same,"viability, T/C",[13],87.2%
same,"viability, T/C",[14],89.7%
same,"viability, T/C",[15],99.2%
same,"viability, T/C",[16],74%
same,"viability, T/C",[17],76.8%
same,"viability, T/C",[18],70.4%
same,"viability, T/C",[19],67.7%
same,"viability, T/C",[20],64.5%
same,"viability, T/C",[21],59.9%
same,"viability, T/C",[22],62.5%
same,"viability, T/C",[23],67.7%
same,"viability, T/C",[24],57.8%
same,"viability, T/C",[25],66.8%
same,"viability, T/C",[26],49.2%
same,"viability, T/C",[27],51.9%
same,"viability, T/C",[28],48.6%
same,"viability, T/C",[29],48%
same,"viability, T/C",[30],43.5%
same,"viability, T/C",[31],37.4%
same,"viability, T/C",[32],39.2%
same,"viability, T/C",[33],43.2%
same,"viability, T/C",[34],35.3%
same,"viability, T/C",[35],39.3%
same,"viability, T/C",[36],34.3%
CCc1c2c(nc3ccc(O)cc13)-c1cc3c(c(=O)n1C2)COC(=O)[C@]3(O)CC + C#Cc1c(F)ccc2cc(O)cc(-c3ncc4c(N5CC6CCC(C5)N6)nc(OCC56CCCN5CC(F)C6)nc4c3F)c12,IC50,second compound 0.0316 µM,119 nM
same,IC50,second compound 0.1 µM,122 nM
same,IC50,second compound 0.316 µM,93.3 nM
same,IC50,second compound 1 µM,59.7 nM
same,IC50,second compound 3.16 µM,10.7 nM
same,IC50,second compound 10 µM,< 0.949 nM
same,"viability, T/C",[1],89.1%
same,"viability, T/C",[2],89.8%
same,"viability, T/C",[3],77.9%
same,"viability, T/C",[4],76%
same,"viability, T/C",[5],53.5%
same,"viability, T/C",[6],30.4%
same,"viability, T/C",[7],96.1%
same,"viability, T/C",[8],86.2%
same,"viability, T/C",[9],78.8%
same,"viability, T/C",[10],72.2%
same,"viability, T/C",[11],58.7%
same,"viability, T/C",[12],28.6%
same,"viability, T/C",[13],82%
same,"viability, T/C",[14],79.9%
same,"viability, T/C",[15],70.7%
same,"viability, T/C",[16],67.1%
same,"viability, T/C",[17],49.4%
same,"viability, T/C",[18],25.7%
same,"viability, T/C",[19],73.8%
same,"viability, T/C",[20],66.1%
same,"viability, T/C",[21],60.1%
same,"viability, T/C",[22],59.8%
same,"viability, T/C",[23],45.8%
same,"viability, T/C",[24],27.2%
same,"viability, T/C",[25],54.3%
same,"viability, T/C",[26],52%
same,"viability, T/C",[27],48.7%
same,"viability, T/C",[28],46%
same,"viability, T/C",[29],40.1%
same,"viability, T/C",[30],24.9%
same,"viability, T/C",[31],37.4%
same,"viability, T/C",[32],36.5%
same,"viability, T/C",[33],36.8%
same,"viability, T/C",[34],28.1%
same,"viability, T/C",[35],26.2%
same,"viability, T/C",[36],17.2%
